The source of these data is EP0368756A1, “Dibenzocycloheptene derivatives, process for their preparation and their use as medicaments” (ROUSSEL-UCLAF, priority 1988, dated 1990).

The subject of assay [1] is couche CA₁ de l'hippocampe. Put plainly: Neuronal protective effect in the hippocampus after stereotaxic quinolinic acid injection. Conditions: anaesthetised rat; 20 mg/kg intraperitoneal 30 min before quinolinic acid (5 micrograms) into right hippocampus; cresyl violet histology one week later. The assay is classed as in vivo. On the procedure: Recherche de l'effet protecteur neuronal dans l'hippocampe.
L'essai a été réalisé chez le rat anesthésié. Une injection stéréotaxique d'acide quinolinique (5 microgrammes) est réalisée dans l'hippocampe droit. Le produit à étudier (ou le véhicule seul pour le lot d'animaux témoins) est administré par voie intrapéritonéale 30 minutes auparavant.
Une semaine plus tard, les cerveaux sont prélevés et coupés en tranches fines. Les tranches sont colorées au crésyl violet et photographiées.
Chez les animaux témoins, l'acide quinolinique détruit la couche CA₁ de l'hippocampe droit tandis que l'hippocampe gauche (contrôle) non injecté, est intacte. L'hippocampe gauche des animaux n'a reçu aucun traitement. Chez les animaux ayant reçu une administration de 20 mg/kg du produit de l'exemple 7, par voie intrapéritonéale, la couche CA₁ de l'hippocampe droit est protégée donc identique à celle de l'hippocampe gauche qui n'a pas reçu d'injection d'acide quinolinique.

In assay [2] the test system is convulsions toniques entrainées par le pentétrazol. Put plainly: Anticonvulsant activity against pentetrazol-induced tonic convulsions. The assay is classed as in vivo, souris. To be noted: sc; mouse; pentetrazol 160 mg/kg s.c. given 1 hour after the product; tonic convulsions noted for 30 minutes; read-out: DA₅₀ ou dose qui diminue de 50 % le nombre de convulsions toniques entrainées par le pentétrazol. On the procedure:
Activité anticonvulsivante chez la souris.
L'essai est réalisé sur des lots de 10 souris. L'agent convulsivant est le pentétrazol, en solution aqueuse à la dose de 160 mg/kg s.c. sous un volume de 0,5 ml/20 g, administré 1 heure après le produit de l'exemple 7. Les animaux sont isolés et les convulsions toniques sont notées pendant 30 minutes.
La DA₅₀ ou dose qui diminue de 50 % le nombre de convulsions toniques entrainées par le pentétrazol est de 2,3 mg/kg.

For the compound `Nc1ccc2c(c1)C1Cc3ccccc3C2N1` (centres unmarked) [exemple 7, 8-amino 10,11-dihydro 5,10-imino 5H-dibenzo[a,d]-cycloheptène], the “effet protecteur neuronal dans l'hippocampe” value in assay [1] was “protégée”. The ED50 in assay [2] was determined as 2.3 mg/kg.
